Laboratory results: patent publication EP0913483A2, “Method and reagent for the determination of creatine kinase” (Roche Diagnostics GmbH, priority 1997, dated 1999)

These compounds were tested on Glucose-6-phosphat-Dehydrogenase (assay: Conversion of different hexoses by glucose-6-phosphate dehydrogenase in the presence of NADP+ (photometric)). Conditions: Hexose 50 mmol/l, G6P-DH 10 U/ml, NADP+ added, 37 °C, 340 nm, ca. 40 min, Imidazol·HCl pH 6,6.
Type: biochemical
Description: Beispiel 1: Umsetzung verschiedener Hexosen mit Glucose-6-phosphat-Dehydrogenase in Gegenwart von NADP^+
Testansatz: Es wurden in einer Küvette mit einer Schichtdicke von 1 cm jeweils 1,0 ml Reagenz A mit 0,1 ml Reagenz B vermischt und mit einem Spektralphotometer bei 37 °C und 340 nm der Extinktionsverlauf über ca. 40 min verfolgt.

| Compound | NADPH-Bildung (Extinktionsverlauf) |
| --- | --- |
| O=C(CO)[C@@H](O)[C@H](O)[C@H](O)CO [Fructose] | keine Extinktionsveränderung meßbar |
| Glucose [reference compound] | signifikante NADPH-Bildung |
| Mannose | keine Extinktionsveränderung meßbar |
